Measurements reported in patent US12195482B1 (Arcus Biosciences, Inc., priority 2022, dated 2025).

What was measured:
p-AXL = molecular target: T1, p-AXL (Homo sapiens, UniProt P30530); assay: Axl phosphorylation inhibition ELISA in HEK293T cells transfected with NanoLuc-tagged AXL; type: cell-based; details: 1 h compound incubation, media (OptiMEM)
T1 construct: expressed in transfected cells; host or cells: HEK293T
T1 sequence (P30530 26-894): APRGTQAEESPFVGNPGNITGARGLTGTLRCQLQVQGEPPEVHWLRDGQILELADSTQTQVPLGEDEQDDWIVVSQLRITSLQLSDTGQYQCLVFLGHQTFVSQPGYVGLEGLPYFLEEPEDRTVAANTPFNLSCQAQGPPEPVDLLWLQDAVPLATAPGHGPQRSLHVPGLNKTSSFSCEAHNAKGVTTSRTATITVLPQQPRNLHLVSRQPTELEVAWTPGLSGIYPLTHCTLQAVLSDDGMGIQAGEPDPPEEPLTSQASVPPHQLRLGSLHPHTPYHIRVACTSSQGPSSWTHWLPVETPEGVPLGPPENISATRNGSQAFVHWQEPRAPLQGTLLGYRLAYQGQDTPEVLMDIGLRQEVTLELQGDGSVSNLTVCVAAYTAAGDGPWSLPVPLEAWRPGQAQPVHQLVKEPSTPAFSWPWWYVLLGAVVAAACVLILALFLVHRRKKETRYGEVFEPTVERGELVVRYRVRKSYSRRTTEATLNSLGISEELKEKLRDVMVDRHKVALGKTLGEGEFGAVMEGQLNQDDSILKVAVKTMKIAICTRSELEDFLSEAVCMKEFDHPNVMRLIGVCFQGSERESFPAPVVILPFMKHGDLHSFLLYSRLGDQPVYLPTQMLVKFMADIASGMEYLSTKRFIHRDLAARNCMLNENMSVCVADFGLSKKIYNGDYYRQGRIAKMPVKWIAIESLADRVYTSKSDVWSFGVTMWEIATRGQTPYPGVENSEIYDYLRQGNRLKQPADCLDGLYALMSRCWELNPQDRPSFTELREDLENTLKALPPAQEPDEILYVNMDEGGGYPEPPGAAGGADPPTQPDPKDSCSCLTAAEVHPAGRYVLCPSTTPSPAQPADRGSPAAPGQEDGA
Procedure, shortened: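 HEK293T cells transiently transfected one day earlier with NanoLuc-tagged AXL were exposed to 22-point 2-fold compound dilutions for 1 h at 37° C (70,000 cells/well), then lysed. Lysates captured on anti-phospho-tyrosine coated plates for 2 h; bound p-AXL read by NanoLuc luminescence; IC50 from 4-parameter logistic fit.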

Axl = molecular target: T2, Axl (Homo sapiens, UniProt P30530); assay: Biochemical potency, HTRF KinEASE-TK kinase assay; parameters: purchased Invitrogen; details: 5 nM AXL, 700 μM ATP
T2 sequence (P30530 26-894): T1 sequence (P30530 26-894)
Procedure, shortened: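 Compounds preincubated 1 h at RT with enzyme in 50 mM HEPES pH 7.4, 10 mM MgCl2, 0.01% BSA, 1 mM DTT; reactions then ran 2 h at RT with 5 nM AXL or 1 nM TYRO3/MER, 800 nM TK substrate-biotin, 700 μM ATP, 1% DMSO. HTRF 665/620 ratio read; percent activity calculated.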

| Structure (SMILES) | IC50 (p-AXL) [nM] | IC50 (Axl) [nM] |
| --- | --- | --- |
| O=c1ccccn1-c1ccc(-c2n[nH]c3ncc(-c4ccc5c(c4)CC[C@@H](N4C6COCC4C6)CC5)cc23)cc1 [Example 31, 1-[4-[5-[(7S)-7-(3-Oxa-6-azabicyclo[3.1.1]heptan-6-yl)-6,7,8,9-tetrahydro-5H-benzo[7]annulen-3-yl]-1H-pyrazolo[3,4-b]pyridin-3-yl]phenyl]pyridin-2-one] | 100 to 1000 | < 100 |
| c1cnc(-c2ccc(-c3n[nH]c4ncc(-c5ccc6c(c5)CC[C@@H](N5C7COCC5C7)CC6)cc34)cc2)c(O[C@@H]2CCOC2)c1 [Example 104, 6-[(7S)-2-[3-(4-{3-[(3R)—Oxolan-3-yloxy]pyridin-2-yl}phenyl)-1H-pyrazolo[3,4-b]pyridin-5-yl]-6,7,8,9-tetrahydro-5H-benzo[7]annulen-7-yl]-3-oxa-6-azabicyclo[3.1.1]heptane] | < 100 | < 100 |
| CC(C)(O)c1cccnc1-c1ccc(-c2n[nH]c3ncc(-c4ccc5c(c4)CC[C@@H](N4C6COCC4C6)CC5)cc23)nc1 [Example 100, 2-(6′-{5-[(7S)-7-{3-Oxa-6-azabicyclo[3.1.1]heptan-6-yl}-6,7,8,9-tetrahydro-5H-benzo[7]annulen-2-yl]-1H-pyrazolo[3,4-b]pyridin-3-yl}-[2,3′-bipyridin]-3-yl)propan-2-ol] | < 100 | < 100 |
| Cc1ncc(C)c(-c2ccc(-c3n[nH]c4ncc(-c5ccc6c(c5)CC[C@@H](N5C7COCC5C7)CC6)cc34)cc2)n1 [Example 122, 6-[(7S)-2-{3-[4-(2,5-Dimethylpyrimidin-4-yl)phenyl]-1H-pyrazolo[3,4-b]pyridin-5-yl}-6,7,8,9-tetrahydro-5H-benzo[7]annulen-7-yl]-3-oxa-6-azabicyclo[3.1.1]heptane] | < 100 | < 100 |
| O=C1CCCN1c1cccnc1-c1ccc(-c2n[nH]c3ncc(-c4ccc5c(c4)CC[C@@H](N4C6COCC4C6)CC5)cc23)cc1 [Example 177, 1-[2-(4-{5-[(7S)-7-{3-Oxa-6-azabicyclo[3.1.1]heptan-6-yl}-6,7,8,9-tetrahydro-5H-benzo[7]annulen-2-yl]-1H-pyrazolo[3,4-b]pyridin-3-yl}phenyl)pyridin-3-yl]pyrrolidin-2-one] | < 100 | < 100 |
| c1cnc(-c2ccc(-c3n[nH]c4ncc(-c5ccc6c(c5)CC[C@@H](N5C7COCC5C7)CC6)cc34)cc2)c(C2CC2)c1 [Example 179, 6-[(7S)-2-{3-[4-(3-Cyclopropylpyridin-2-yl)phenyl]-1H-pyrazolo[3,4-b]pyridin-5-yl}-6,7,8,9-tetrahydro-5H-benzo[7]annulen-7-yl]-3-oxa-6-azabicyclo[3.1.1]heptane] | 100 to 1000 | < 100 |
| Cc1nn(C)nc1-c1ccc(-c2n[nH]c3ncc(-c4ccc5c(c4)CC[C@@H](N4C6COCC4C6)CC5)cc23)cc1 [Example 14, 6-[(7S)-2-{3-[4-(2,5-Dimethyl-2H-1,2,3-triazol-4-yl)phenyl]-1H-pyrazolo[3,4-b]pyridin-5-yl}-6,7,8,9-tetrahydro-5H-benzo[7]annulen-7-yl]-3-oxa-6-azabicyclo[3.1.1]heptane] | < 100 | < 100 |
| CCc1cccnc1-c1ccc(-c2n[nH]c3ncc(-c4ccc5c(c4)CC[C@@H](N4C6COCC4C6)CC5)cc23)cc1 [Example 182, 6-[(7S)-2-{3-[4-(3-Ethylpyridin-2-yl)phenyl]-1H-pyrazolo[3,4-b]pyridin-5-yl}-6,7,8,9-tetrahydro-5H-benzo[7]annulen-7-yl]-3-oxa-6-azabicyclo[3.1.1]heptane] | < 100 | < 100 |
| Cc1cccnc1-c1ccc(-c2c[nH]c3ncc(-c4ccc5c(c4)CC[C@@H](N4CCCC4)CC5)cc23)cc1 [Example 173, 3-Methyl-2-(4-{5-[(7S)-7-(pyrrolidin-1-yl)-6,7,8,9-tetrahydro-5H-benzo[7]annulen-2-yl]-1H-pyrrolo[2,3-b]pyridin-3-yl}phenyl)pyridine] | < 100 | < 100 |
| Cc1cccnc1-c1ccc(-c2n[nH]c3ncc(-c4ccc5c(c4)CC[C@@H](N4C[C@@H]6C[C@H]4CO6)CC5)cc23)cc1 [Example 130, (1S,4S)-5-[(7S)-2-{3-[4-(3-Methylpyridin-2-yl)phenyl]-1H-pyrazolo[3,4-b]pyridin-5-yl}-6,7,8,9-tetrahydro-5H-benzo[7]annulen-7-yl]-2-oxa-5-azabicyclo[2.2.1]heptane] | < 100 | < 100 |
| O=C1CCCN1c1cccnc1-c1ccc(-c2c[nH]c3ncc(-c4ccc5c(c4)CC[C@@H](N4C6COCC4C6)CC5)cc23)cc1 [Example 7, 1-[2-(4-{5-[(7S)-7-{3-Oxa-6-azabicyclo[3.1.1]heptan-6-yl}-6,7,8,9-tetrahydro-5H-benzo[7]annulen-2-yl]-1H-pyrrolo[2,3-b]pyridin-3-yl}phenyl)pyridin-3-yl]pyrrolidin-2-one] | < 100 | < 100 |
| c1cnc(-c2ccc(-c3c[nH]c4ncc(-c5ccc6c(c5)CC[C@@H](N5C7COCC5C7)CC6)cc34)cc2)c(N2CCOCC2)c1 [Example 5, 6-[(7S)-2-(3-{4-[3-(Morpholin-4-yl)pyridin-2-yl]phenyl}-1H-pyrrolo[2,3-b]pyridin-5-yl)-6,7,8,9-tetrahydro-5H-benzo[7]annulen-7-yl]-3-oxa-6-azabicyclo[3.1.1]heptane] | < 100 | < 100 |

Second part, the compound after the results:

| IC50 (p-AXL) [nM] | IC50 (Axl) [nM] | Structure (SMILES) |
| --- | --- | --- |
| 100 to 1000 | < 100 | CN(C)C(=O)c1ccccc1-c1ccc(-c2c[nH]c3ncc(-c4ccc5c(c4)CC[C@@H](N4C6COCC4C6)CC5)cc23)cn1 [Example 170, N,N-Dimethyl-2-(5-{5-[(7S)-7-{3-oxa-6-azabicyclo[3.1.1]heptan-6-yl}-6,7,8,9-tetrahydro-5H-benzo[7]annulen-2-yl]-1H-pyrrolo[2,3-b]pyridin-3-yl}pyridin-2-yl)benzamide] |
| < 100 | < 100 | OC1(c2cccnc2-c2ccc(-c3c[nH]c4ncc(-c5ccc6c(c5)CC[C@@H](N5C7COCC5C7)CC6)cc34)cc2)CCC1 [Example 22, 1-[2-[4-[5-[(7S)-7-(3-Oxa-6-azabicyclo[3.1.1]heptan-6-yl)-6,7,8,9-tetrahydro-5H-benzo[7]annulen-3-yl]-1H-pyrrolo[2,3-b]pyridin-3-yl]phenyl]pyridin-3-yl]cyclobutan-1-ol] |
| < 100 | < 100 | COc1cccnc1-c1ccc(-c2c[nH]c3ncc(-c4ccc5c(c4)CC[C@@H](N4C6COCC4C6)CC5)cc23)cc1 [Example 164, 6-[(7S)-2-{3-[4-(3-Methoxypyridin-2-yl)phenyl]-1H-pyrrolo[2,3-b]pyridin-5-yl}-6,7,8,9-tetrahydro-5H-benzo[7]annulen-7-yl]-3-oxa-6-azabicyclo[3.1.1]heptane] |
| < 100 | < 100 | c1cnc(-c2ccc(-c3c[nH]c4ncc(-c5ccc6c(c5)CC[C@@H](N5C7COCC5C7)CC6)cc34)cc2)c(C2CC2)c1 [Example 178, 6-[(7S)-2-{3-[4-(3-Cyclopropylpyridin-2-yl)phenyl]-1H-pyrrolo[2,3-b]pyridin-5-yl}-6,7,8,9-tetrahydro-5H-benzo[7]annulen-7-yl]-3-oxa-6-azabicyclo[3.1.1]heptane] |
| 100 to 1000 | < 100 | Cc1ccc(-c2ccc(-c3n[nH]c4ncc(-c5ccc6c(c5)CC[C@@H](N5C7COCC5C7)CC6)cc34)cc2)nc1 [Example 115, 6-[(7S)-2-{3-[4-(5-Methylpyridin-2-yl)phenyl]-1H-pyrazolo[3,4-b]pyridin-5-yl}-6,7,8,9-tetrahydro-5H-benzo[7]annulen-7-yl]-3-oxa-6-azabicyclo[3.1.1]heptane] |
| < 100 | < 100 | CN(C)S(=O)(=O)c1cccnc1-c1ccc(-c2c[nH]c3ncc(-c4ccc5c(c4)CC[C@@H](N4C6COCC4C6)CC5)cc23)cc1 [Example 6, N,N-Dimethyl-2-(4-{5-[(7S)-7-{3-oxa-6-azabicyclo[3.1.1]heptan-6-yl}-6,7,8,9-tetrahydro-5H-benzo[7]annulen-2-yl]-1H-pyrrolo[2,3-b]pyridin-3-yl}phenyl)pyridine-3-sulfonamide] |
| < 100 | < 100 | CS(=O)(=O)c1cccnc1-c1ccc(-c2c[nH]c3ncc(-c4ccc5c(c4)CC[C@@H](N4C6COCC4C6)CC5)cc23)cc1 [Example 102, 6-[(7S)-2-{3-[4-(3-Methanesulfonylpyridin-2-yl)phenyl]-1H-pyrrolo[2,3-b]pyridin-5-yl}-6,7,8,9-tetrahydro-5H-benzo[7]annulen-7-yl]-3-oxa-6-azabicyclo[3.1.1]heptane] |
